Assay results taken from patent US20230382916A1, “HETEROARYL HETEROCYCLIC COMPOUNDS AND USES THEREOF” (HUTCHISON MEDIPHARMA LIMITED, priority 2020, published 2023).

Legend:
[1] = Stability test in liver microsomes (mouse); format: in vitro ADME; conditions: mouse liver microsomes 0.5 mg/mL, 1 μM compound
Experimental: (§1) Both male CD-1 mouse pooled liver microsomes and male SD rat pooled liver microsomes were purchased from BioreclamationIVT Corporation, USA.
(§2) The test compound stock solution was diluted with an organic solvent (usually a mixture of acetonitrile, methanol and water with various ratios, depending on the solubility of the compound, if necessary, 1 N hydrochloric acid or 1 N sodium hydroxide would be added to facilitate solubilization) to the 0.1 mM (the final concentration of the compound in the reaction system was 1 μM) and the concentration percentage of the organic solvents in the incubation system no more than 1% (wherein the percentage of DMSO was required to be no more than 0.1%). An appropriate amount of 100 mM NADP, 500 mM G-6-P and 100 Unit/mL G-6-PDH were mixed and diluted with ultrapure water (the final system contains 1 mM NADP, 5 mM G-6-P and 1 Unit/mL G-6-PDH), pre-incubated in a 37° C. water bath for 10 minutes and then placed on ice for use as a NADPH regeneration solution. 20 mg/mL liver microsomes solution and 200 mM phosphate buffer were mixed, and diluted with ultrapure water to give a liver microsomes solution containing 2.5 mg/mL liver microsomes (the final concentration of the reaction system is 0.5 mg/mL) and 50 mM phosphate buffer. The diluted liver microsomes solution was mixed with 0.1 mM compound solution, a mixture of 100 mM EDTA, 300 mM MgCl2 solution, 200 mM phosphate buffer (the final system was 3 mM MgCl2, 1 mM EDTA and 50 mM phosphate buffer) and water in an appropriate volume was added. Finally, the NADPH regeneration solution was added, then the reaction solution was placed in a 37° C. water bath to start the reaction (the reaction time was 30 minutes), and the reaction was stopped by adding the ice-cold acetonitrile reaction stopping solution containing the internal standard. The 0-minute sample was not incubated in a 37° C. water bath, and its difference from the 30-minute sample further lies in that the ice-cold acetonitrile reaction stopping solution containing the internal standard was added first, and then the NADPH regeneration solution was added. The sample added with the reaction stopping internal standard solution was vortexed and mixed well, and then centrifuged at 4400 rpm for 10 minutes. The supernatant was taken and diluted ten times with 50% methanol for LC-MS/MS analysis.
(§3) LC-MS/MS was used to determine the concentration of the compound in the sample. The percentage of the remaining compound after 30 minutes of incubation comparing with that in the 0-minute sample was calculated using the peak area ratio of the compound to the internal standard as an indicator, to evaluate the metabolic stability of the compound.

BTK recombinant protein = BTK recombinant protein (Homo sapiens (Human), UniProt Q06187); experiment: Determination of biochemical BTK (Z'-LYTE kinase assay); conditions: 32 μM ATP
Sequence of BTK recombinant protein (Q06187 whole entry): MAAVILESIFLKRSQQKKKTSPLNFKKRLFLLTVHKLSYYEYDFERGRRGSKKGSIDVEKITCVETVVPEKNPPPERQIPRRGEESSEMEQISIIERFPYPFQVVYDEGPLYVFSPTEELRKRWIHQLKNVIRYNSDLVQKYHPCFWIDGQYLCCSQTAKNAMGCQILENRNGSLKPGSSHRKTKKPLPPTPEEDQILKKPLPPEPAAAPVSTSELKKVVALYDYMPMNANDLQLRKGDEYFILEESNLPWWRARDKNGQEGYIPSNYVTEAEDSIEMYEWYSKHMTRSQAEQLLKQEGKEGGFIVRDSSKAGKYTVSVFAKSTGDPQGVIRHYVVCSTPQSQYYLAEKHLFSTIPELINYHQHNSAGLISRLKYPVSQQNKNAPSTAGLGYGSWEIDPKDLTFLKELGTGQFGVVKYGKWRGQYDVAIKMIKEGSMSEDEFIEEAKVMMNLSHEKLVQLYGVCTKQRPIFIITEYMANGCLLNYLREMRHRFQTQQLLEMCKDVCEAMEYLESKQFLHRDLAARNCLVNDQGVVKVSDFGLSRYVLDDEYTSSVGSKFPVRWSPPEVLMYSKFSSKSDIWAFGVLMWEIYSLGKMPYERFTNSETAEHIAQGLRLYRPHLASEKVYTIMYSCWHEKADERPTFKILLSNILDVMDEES
Description: BTK recombinant protein: Invitrogen, Cat #PV3363;
Z′-LYTE® kinase test kit-tyrosine 1 peptide: Invitrogen, Cat #PV3190;
Z′-LYTE® biochemical assay employs a fluorescence resonance energy transfer (FRET)-based, coupled-enzyme format and is based on the differential sensitivity of phosphorylated and non-phosphorylated peptides to proteolytic cleavage. Both ends of the short peptide substrate are labeled with two fluorescent groups to form a FRET paired combination. In the primary reaction (the Kinase Reaction), the kinase transfers the γ-phosphate of ATP to a single […] residue on the short peptide substrate. In the secondary reaction (the development reaction), the non-phosphorylated short peptides were recognized and cleaved by a site-specific protease (the development reagent). Phosphorylated short peptides can resist such cleavage. Cleavage of short peptides can disrupt the donor (such as coumarin) and receptor fluorophores (fluorescein) on the short peptides, while the phosphorylated short peptides can maintain FRET. The calculation method of the ratio is as follows, and the ratio of the respective emission signals generated by the donor fluorophores emitted (after excitation at 400 nm) to the receptors is calculated. Emission signal ratio=emitted light by coumarin (445 nm)/emitted light by fluorescein (520 nm). If the FRET short peptide is phosphorylated (such as no kinase inhibitor), the emitted light ratio will remain in a lower level. If the FRET short peptide is non-phosphorylated (such as kinase inhibitor), the emitted light ratio will be in a higher level. In this way, the inhibitory effects of different compound inhibitors on BTK kinase activity would be distinguished.
The experiment was carried out according to the instructions of the Z′-LYTE® kinase test kit-tyrosine 1 peptide. Reagent preparation: 1.33× kinase buffer: 5× kinase buffer was diluted with water to 1.33× kinase buffer; an enzyme solution: the kinase was dissolved in 1.33× kinase buffer with the final working concentration being 3.32 nM; a short peptide solution: a short peptide stock solution (1 mM dissolved in DMSO) was dissolved in 1.33× kinase buffer with the final working concentration being 2 μM; Z′-LYTE Tyr01 phosphorylated short peptide solution, 0.6 μl of stock solution (1 mM dissolved in DMSO) was dissolved in 149.4 μl of 1.33× kinase buffer; an ATP solution: an ATP stock solution (10 mM aqueous solution) was dissolved in 1.33× kinase buffer with the final working concentration being 32 μM; a color-developing solution: color-developing solution B was dissolved in color-developing buffer with the final working concentration being 1× color-developing solution; 4× compound preparation: the compound was diluted in 3-fold gradient concentration to finally obtain 4% DMSO aqueous solution containing different concentrations of the compound, with the final working concentration being 3000, 1000, 333.33, 111.11, 37.04, 12.35, 4.12, 1.37 nM, 8 concentration points in total.
Specific steps of the experiment: In the experiment, there were three control groups, each with 8 replicate wells, which were C1 100% inhibition group (no ATP), C2 0% inhibition group (with ATP), and C3 100% phosphorylation group, respectively. 2.5 μl of serially diluted compound was added to each well of a 384-well plate, with double replicate wells, and 4% DMSO solution was added to wells C1, C2, and C3. After that, except for wells C3, 2.5 μl of BTK enzyme solution was added to each remaining well, which was left to stand at 4° C. for 30 minutes. After that, except for wells C3, 2.5 μl of short peptide solution was added to each well, and 5 μl of phosphorylated short peptide solution was added to each of wells C3. 2.5 μl of 1.33× kinase buffer was added to each of wells C1 and C3, and 2.5 μl of ATP solution was added to each of the remaining wells. The wells were centrifuged transiently, and the plate was shaken at 1000 rpm for 30 seconds to perform transient centrifuge. […]

[2] = Stability test in liver microsomes (rat); format: in vitro ADME; conditions: rat liver microsomes 0.5 mg/mL, 1 μM compound
Experimental: as §1, §2, §3

[3] = tested on: anti-IgD antibody-induced B cell activation in mice whole blood; experiment: In vivo efficacy of the inhibitory effect on BTK target: anti-IgD antibody-induced B cell activation in mice whole blood after oral dosing; parameters: species or system mouse; conditions: 20 mg/kg oral single dose, 16 h
Experimental: Objects: B cells in mice whole blood were induced and activated by the anti-IgD antibody, and the inhibitory effect of the compound of the present invention on B cell activation in vivo was studied, so as to determine the inhibitory effect of the compound of the present invention on the BTK target in vivo.
Methods: C57BL/6 mice (female, 18-20 g, purchased from Shanghai Lingchang Biotechnology Co., Ltd.) were grouped according to Table 1.
The animals of each group were administered, then were placed in CO2 for anesthesia at designated time points, blood samples were taken from […] via retro-orbital bleeding, and heparin was used for anticoagulation; 90 μL of whole blood was taken from mice of each group, and added to a 96 well culture plate, and anti-mouse IgD antibody (BIO-RAD, Cat #MCA4693) was added to each well to a final concentration of […] (respectively for each drug-treated group and anti-IgD antibody-inducted vehicle group); in addition, 90 μL of whole blood of mice in the vehicle group was taken and added to the 96-well culture plate, and PBS (phosphate buffer, GIBCO, Cat #C20012500BT) was added to each well to a final concentration of 0.01 μg/L (namely, the vehicle control group); Each group was mixed well and incubated in a 37° C./5% CO2 incubator for 4 hours. In addition, the blood of mice in the drug-treated group was centrifuged to separate plasma for blood concentration analysis.
B cell activation ratio=percentage of CD69^+CD19^+ double positive B cells/percentage of CD19^+ single positive B cells
Inhibition ratio=(percentage of B cell activation ratio in anti-IgD antibody-induced vehicle group−percentage of B cell activation ratio in drug-treated group)/(percentage of B cell activation ratio in anti-IgD antibody−induced vehicle group-percentage of B cell activation ratio in vehicle control group)×100%
All data are represented by mean±standard error. For the comparison between each drug-treated group and the anti-IgD antibody-induced vehicle group, p value was calculated by Graphpad Prism using one-way ANOVA analysis of variance and Dunnett's test, and for the comparison between each drug-treated group, p value was calculated by using unpaired t test.

For C[C@@H]1CN(C2COC2)C[C@H](C)N1c1ccc(Nc2cc(-c3ccnc(-n4ccn5c6c(cc5c4=O)CC(C)(C)C6)c3CO)cn(C)c2=O)nc1 [Compound 2], the “MLM, percentage of the remaining compound after 30 minutes of incubation” value [1] was 92.6%, the IC50 (BTK recombinant protein) was 7 nM and the “RLM, percentage of the remaining compound after 30 minutes of incubation” value [2] was 85.7%. For the same molecule, the “Inhibition ratio (%) on B cell activation” value [3] was 43%, the “B cell activation ratio (the population of activated B cells in total B cells)” value ([3]; mean ± standard error) was 20.6 ± 5.0 and the “Inhibition ratio (%) on B cell activation” value ([3]; listed as compound 2) was 43%.
